Source: patent publication US20060141620A1, “System and method for forming a cardiac tissue construct” (The Regents of the University of Michigan, priority 2004, published 2006)

Legend:
[1] = system: cardiac tissue constructs; assay: Inotropic response to ionic calcium (force vs calcium concentration of the bath); format: cell-based, rat; settings: explanted constructs, calcium reintroduced after EGTA removal
Description: The effect of the addition of exogenous calcium on contractility was investigated in the constructs according to the present invention. First, CM in the bath was replaced with calcium-free DMEM (Invitrogen). Known volumes of 100 mM ethylene glycol-bis(2-aminoethylether)-N,N,N′,N′-tetraacetic acid (EGTA) were then added to the bath to bind residual stores of calcium in the constructs. At each incremental addition of EGTA, twitch stimulation was applied and the force of contraction was measured. Removal of calcium was considered to be complete when the force of contraction was not detectable and no further EGTA was added. At this point, the calcium-free DMEM in the bath was aspirated and the construct was washed 3 times with fresh calcium-free DMEM. Known volumes of 100 mM calcium were then added and stimulated contraction forces were re-evaluated with each addition. This process was repeated until there was no further increase in the active force with the addition of calcium. The relationship of calcium concentration of the bath to force of contraction was then plotted.
The pCa1/2 of mammalian cardiac tissue has been reported in the range 5.9 to 7.0 (see Bers, Excitation-Contraction Coupling and Cardiac Contractile Force, Norwell: Kluwer Academic Publishers, 2002). […] The inotropic response to external calcium is an indicator of the presence of functional calcium handling machinery.

[2] = system: cardioids; settings: prior publication US 2004/0132184; cited from earlier work
[3] = system: cardiac tissue constructs
Description: Turning now to FIG. 7, the response to epinephrine was studied in four constructs according to the present invention by adding known concentrations of epinephrine to the CM, with the constructs still attached to the force transducer. […] The concentration of epinephrine was calculated based on the typical dosage given to an adult for cardiac resuscitation. The spontaneous contractility of the constructs was recorded for a period of 5 minutes after the addition of epinephrine.

SMILES	pCa1/2 [1]	response of cardioids [2]	duration of rapid contraction pattern (resembling tachyarrhythmia) ([3]; 0.2 μg/ml) [s]	effect on spontaneous contractility ([3]; 0.2 μg/ml in culture bath, four constructs)
[Ca+2] [calcium]	3.04	positive inotropy	–	–
CNC[C@H](O)c1ccc(O)c(O)c1 [epinephrine]	–	positive chronotropy	60 to 90	re-initiated spontaneous contractions
